Data: patent US8507219B2, “Method of treating inflammation with statins” (MUSC Foundation for Research Development, priority 1997, dated 2013)
Where “and” joins values, the source holds several entries; their conditions need not be identical. Equal entries are not always repeated. Where two headings read alike, the source gives them in different places.

Legend:
[1] = tested on: NO production in rat primary microglia; assay: LPS-induced NO production (nitrite) in rat primary microglia; assay type: cell-based
[2] = tested on: NO production in rat resident macrophages; assay: LPS-/cytokine-induced NO production (nitrite) in rat resident peritoneal macrophages; assay type: cell-based; settings: for inhibition at 20000 µM: Rattus norvegicus, Macrophage
Protocol: Isolation of Rat Macrophages and Induction of NO Production Resident macrophages were obtained from rats by peritoneal lavage with sterile RPMI 1640 medium containing 1% fetal bovine serum and 100 μg/ml gentamicin (Wang et al., 1995). Cells were washed three times with RPMI 1640 at 4° C. All cell cultures were maintained at 37° C. in a humidified incubator containing 5% CO2 in air. Macrophages, at a concentration of 2×10^6/ml in RPMI 1640 medium containing L-glutamine and gentamicin, were added in volumes of 800 μl to a 35 mm plate. After 1 h, nonadherent cells were removed by washing and 800 μl of serum-free RPMI 1640 medium with various stimuli were added to the adherent cells. After 24 h incubation in 5% CO2 in air at 37° C., the culture supernatants were transferred to measure NO production (Geng et al., 1995; Wang et al., 1995).
Isolation of rat macrophages and induction of NO production Resident macrophages were obtained from rat by peritoneal lavage with sterile RPMI 1640 medium containing 1% fetal bovine serum and 100 μg/ml gentamicin as described herein. Cells were washed three times with RPMI 1640 at 4° C. All cell cultures were maintained at 37° C. in a humidified incubator containing 5% CO2 in air. Macrophages at a concentration of 2×10^6/ml in RPMI 1640 medium containing L-glutamine and gentamicin were added in volumes of 800 μl to a 35 mm plate. After 1 h, nonadherent cells were removed by washing and 800 μl of serum-free RPMI 1640 medium with various stimuli were added to the adherent cells. After incubation in 5% CO2 in air at 37° C., culture supernatants were transferred to measure NO production.
Isolation of rat macrophages and induction of NO production Resident macrophages were obtained from rat by peritoneal lavage with sterile RPMI 1640 medium containing 1% FBS and 100 μg/ml gentamicin. Cells were washed three times with RPMI 1640 at 4° C., and were maintained at 37° C. in a humidified incubator containing 5% CO2 in air. Macrophages at a concentration of […] in RPMI 1640 medium containing L-glutamine and gentamicin were added in volumes of 800 μl to a 35-mm plate. After 1 h, nonadherent cells were removed by washing, and 800 μl of serum-free RPMI 1640 medium with various stimuli was added to the adherent cells. After 24 h the culture supernatants were transferred to measure NO production.
Protein was measured (Bradford, 1976).

[3] = tested on: NO production in rat C6 glial cells; assay: LPS-/cytokine-induced NO production (nitrite) in C6 glial cells; assay type: cell-based; settings: for Nitrite / inhibition at 20000 µM: C6 glial cells, NAC 20 mM 2 h prior; for Nitrite: 24 h; for inhibition at 20000 µM: Rattus norvegicus, Glial cell
[4] = tested on: TNF-α production in rat primary astrocytes; assay: LPS-induced TNF-α production (ELISA) in rat primary astrocytes; assay type: cell-based
Protocol: Determination of TNF-α and IL-1β in culture supernatants Cells were stimulated with LPS in serum-free media for 24 h in the presence or absence of forskolin or rolipram, and concentrations of TNF-α and IL-1β were measured in culture supernatants by using high-sensitivity enzyme-linked immunosorbent assay (R&D Systems, USA) according to the manufacturer's instructions.

[5] = tested on: IL-6 production in rat primary astrocytes; assay: LPS-induced IL-6 production (ELISA) in rat primary astrocytes; assay type: cell-based
[6] = tested on: IL-1β production in rat macrophages; assay: LPS-induced IL-1β production (ELISA) in rat macrophages; assay type: cell-based
[7] = tested on: cultured skin fibroblasts of X-ALD; assay: VLCFA ratios (C26:0/C22:0, C24:0/C22:0) in X-ALD skin fibroblasts; assay type: cell-based, human; design: C24:0/C22:0: concentration or dose not given beside the values
EAE in female Lewis rats = assay: Experimental allergic encephalomyelitis (EAE), clinical score; assay type: in vivo
Protocol: Rats were induced with EAE by injecting intradermally 50 μg of myelin basic protein (MBP) per animal emulsified in complete Freund's adjuvant (CFA) into the medial footpad of each hind leg on day 1 followed by a booster injection on the 7th day under ether anesthesia. Clinical symptoms in these rats manifest as an ascending paralysis resulting in death in most animals. The signs of EAE were scored as: (0) normal; (1) piloerection; […] (4) paraplegia; and (5) moribund. […] One group of animals induced for EAE was left untreated while another group of animals was not induced for EAE and used as the control group.

IFN-γ = assay: Immunohistochemistry of IFN-γ in brain sections of EAE rats; assay type: in vivo, Lewis rats
Protocol: One group of animals induced for EAE was left untreated while another group of animals was not induced for EAE and used as the control group.
Immunohistochemistry Brains were fixed in 10% buffered formalin (Stephens Scientific, Riverdale, N.J.). The tissues were embedded in paraffin and sectioned at 4 μm. Sections were then stained for various cytokines and cell markers as described below. For single-label immunohistochemistry, sections were incubated with either anti-iNOS antibody (1:100, rabbit polyclonal, Calbiochem, LaJolla, Calif.) or anti-TNF-α antibody (1:100, rabbit polyclonal, Genzyme, Cambridge, Mass.) or anti-IFN-γ antibody (1:200, rabbit polyclonal, Biosource International, Camarillo, Calif.) essentially as described for other antibodies (Hooper et al., 1997). The tissue sections were further incubated with FITC conjugated anti-rabbit IgG (1:100, Sigma, St. Louis, Mo.), mounted with mounting media (EMS) and analyzed by immunofluorescence microscopy (Olympus) using Adobe photoshop software. For immunofluorescent double-labeling, sections were incubated first with anti-iNOS (1:100) followed by macrophage marker ED1 (1:100, mouse monoclonal, Biosource International, Camarillo, Calif.). Anti-iNOS was visualized using TRITC conjugated anti-rabbit IgG—(1:100, Sigma, St. Louis, Mo.) and ED1 using FITC conjugated anti-mouse IgG (1:100, Sigma, St. Louis, Mo.). […]

[8] = Macrophages, 10 μM lovastatin or 5 mM NaPA 8 h, then LPS 1.0 μg/ml, 24 h
[9] = Astrocytes, 10 μM lovastatin or 5 mM NaPA 8 h, then LPS 1.0 μg/ml, 24 h
[10] = treatment from first day of immunization

Q: Which “Production of NO” value ([1]; Microglia, 10 μM lovastatin or 5 mM NaPA 8 h, then LPS 1.0 μg/ml, 24 h) does the source give for `CC[C@H](C)C(=O)O[C@H]1C[C@@H](C)C=C2C=C[C@H](C)[C@H](CC[C@@H]3C[C@@H](O)CC(=O)O3)[C@H]21` [Lovastatin] here?
A: 5.9 ± 0.4 nmol/24 h/mg protein

Q: And the “Production of NO” value [2, 8]?
A: 7.2 ± 0.9 nmol/24 h/mg protein

Q: And the “LPS- and cytokine-induced NO production” value [3]?
A: inhibit LPS- and cytokine-induced NO production in rat C6 glial cells

Q: What about the “Production of TNF-α” value [4, 9] of the same compound?
A: 0.3 ± 0.05 ng/24 h/mg protein

Q: What about the “Production of IL-6” value [5, 9] of the same compound?
A: 6.9 ± 0.9 ng/24 h/mg protein

Q: What about the “Production of IL-1β” value [6, 8] of the same compound?
A: 2.3 ± 0.3 ng/24 h/mg protein

Q: And the “C24:0/C22:0” value [7]?
A: 1.25 ± 0.15 and 1.28 ± 0.21 and 1.31 ± 0.18 and 1.26 ± 0.16 and 1.29 ± 0.02

Q: What about the “protection against EAE disease” value (EAE in female Lewis rats; [10]) of the same compound?
A: significantly delayed the onset of first of clinical symptom

Q: Which results are given for `CC(=O)N[C@@H](CS)C(=O)O` [NAC, N-acetyl cysteine]?
A: Nitrite ([2]; IFN-γ 200 U/ml, NAC 20 mM 2 h before): 9.9 ± 1.8 nmol/mg/24 h; Nitrite ([2]; IL-1β 200 ng/ml, NAC 20 mM 2 h before): 9.2 ± 0.7 nmol/mg/24 h; Nitrite ([2]; LPS 0.2 μg/ml + IFN-γ 50 U/ml, NAC 20 mM 2 h before): 25.2 ± 3.9 nmol/mg/24 h; Nitrite ([2]; LPS 0.2 μg/ml + IL-1β 25 ng/ml, NAC 20 mM 2 h before): 28.4 ± 3.7 nmol/mg/24 h; Nitrite ([2]; LPS 0.2 μg/ml + TNF-α 20 ng/ml, NAC 20 mM 2 h before): 13.6 ± 2.6 nmol/mg/24 h; Nitrite ([2]; LPS 1.0 μg/ml, 24 h, NAC 20 mM 2 h before LPS, NMA 0.1 mM, arginase 100 units/ml with LPS): 11.6 ± 1.5 nmol/mg Protein^24h; rate of nitrite accumulation ([2]; LPS 1.0 μg/ml, NAC 20 mM, onset of NO release until 24 h, 5.2 in the absence of NAC): 0.5 nmol/mg/h; Nitrite ([2]; LPS 1.0 μg/ml, NAC 20 mM 2 h before): 11.6 ± 1.5 nmol/mg/24 h; Nitrite ([2]; NAC 20 mM alone, no LPS, 24 h): 6.2 ± 0.8 nmol/mg Protein^24h; inhibition at 20000 µM ([2]; 7 h, NAC 20 mM added 7 h after the addition of LPS, read-out: inhibition of nitrite production): 20%; inhibition at 20000 µM ([2]; IFN-γ 200 U/ml, NAC 20 mM 2 h before, read-out: Inhibition (%) of nitrite): 89%; inhibition at 20000 µM ([2]; IL-1β 200 ng/ml, NAC 20 mM 2 h before, read-out: Inhibition (%) of nitrite): 57%; inhibition at 20000 µM ([2]; LPS 0.2 μg/ml + IFN-γ 50 U/ml, NAC 20 mM 2 h before, read-out: Inhibition (%) of nitrite): 84%; inhibition at 20000 µM ([2]; LPS 0.2 μg/ml + IL-1β 25 ng/ml, NAC 20 mM 2 h before, read-out: Inhibition (%) of nitrite): 81%; inhibition at 20000 µM ([2]; LPS 0.2 μg/ml + TNF-α 20 ng/ml, NAC 20 mM 2 h before, read-out: Inhibition (%) of nitrite): 92%; inhibition at 20000 µM ([2]; LPS 1.0 μg/ml, NAC 20 mM 2 h before, read-out: Inhibition (%) of nitrite): 91%; inhibition at 20000 µM ([2]; NAC 20 mM, 2 h before LPS, read-out: inhibition of LPS-mediated nitrite production): > 90%; inhibition at 20000 µM ([2]; TNF-α 20 ng/ml + IFN-γ 50 U/ml, NAC 20 mM 2 h before, read-out: Inhibition (%) of nitrite): 79%; inhibition at 20000 µM ([2]; TNF-α 20 ng/ml + IL-1β 25 ng/ml, NAC 20 mM 2 h before, read-out: Inhibition (%) of nitrite): 83%; inhibition at 20000 µM ([2]; TNF-α 100 ng/ml, NAC 20 mM 2 h before, read-out: Inhibition (%) of nitrite): 64%; inhibition at 20000 µM ([2]; no stimulus (Control), NAC 20 mM, read-out: Inhibition (%) of nitrite): 37%; inhibition at 20000 µM ([2]; of LPS (1.0 μg/ml)-induced nitrite, NAC 20 mM 2 h before, NMA 0.1 mM, arginase 100 units/ml with LPS, read-out: Inhibition (%)): 91%; Nitrite ([2]; TNF-α 20 ng/ml + IFN-γ 50 U/ml, NAC 20 mM 2 h before): 29.6 ± 4.2 nmol/mg/24 h; Nitrite ([2]; TNF-α 20 ng/ml + IL-1β 25 ng/ml, NAC 20 mM 2 h before): 22.8 ± 2.7 nmol/mg/24 h; Nitrite ([2]; TNF-α 100 ng/ml, NAC 20 mM 2 h before): 10.1 ± 1.6 nmol/mg/24 h; Nitrite ([2]; no stimulus (Control), NAC 20 mM): 6.2 ± 0.8 nmol/mg/24 h; Nitrite ([3]; stimulus LPS + IFN-γ): 8.2 ± 1.4 nmol/mg/24 h; Nitrite ([3]; stimulus LPS + IL-1β): 5.8 ± 1.2 nmol/mg/24 h; Nitrite ([3]; stimulus LPS + TNF-α): 7.1 ± 1.1 nmol/mg/24 h; Nitrite ([3]; stimulus TNF-α + IFN-γ): 8.4 ± 2.1 nmol/mg/24 h; Nitrite ([3]; stimulus TNF-α + IL-1β): 4.2 ± 0.8 nmol/mg/24 h; inhibition at 20000 µM ([3]; stimulus LPS + IFN-γ): 74%; inhibition at 20000 µM ([3]; stimulus LPS + IL-1β): 75%; inhibition at 20000 µM ([3]; stimulus LPS + TNF-α): 79%; inhibition at 20000 µM ([3]; stimulus TNF-α + IFN-γ): 73%; inhibition at 20000 µM ([3]; stimulus TNF-α + IL-1β): 80%; protection against EAE disease (EAE in female Lewis rats; [10]): protected the rats from the severity of the disease; expression of IFN-γ in EAE brain (IFN-γ; daily i.p. treatment from day 1): blocked the induction of IFN-γ

Q: For `O=C([O-])Cc1ccccc1.[Na+]` [NaPA, sodium salt of phenylacetic acid], which “Production of NO” value [1] is on record?
A: 6.9 ± 0.9 nmol/24 h/mg protein

Q: And the “Production of NO” value [2]?
A: 9.5 ± 0.7 nmol/24 h/mg protein

Q: And the “Production of TNF-α” value [4]?
A: 0.4 ± 0.06 ng/24 h/mg protein

Q: And the “Production of IL-6” value [5]?
A: 7.6 ± 0.8 ng/24 h/mg protein

Q: And the “Production of IL-1β” value [6]?
A: 3.1 ± 0.4 ng/24 h/mg protein and 3.1 ± .4 ng/24 h/mg protein

Q: What about the “ratios of C26:0/C22:0 and C24:0/C22:0 / level of VLCFA” value [7] of the same compound?
A: almost to the normal level after 15 days of treatment

Q: And the “protection against EAE disease” value (EAE in female Lewis rats; rat, in vivo)?
A: protected the rats from the severity of the disease

Q: And the “expression of IFN-γ in EAE brain” value (IFN-γ; rat, in vivo, ip)?
A: blocked the induction of IFN-γ
